In patent publication US11059771B2, “Warming sensation compounds” (TAKASAGO INTERNATIONAL CORPORATION, priority 2016, dated 2021):

Legend:
panelists = assay: Warming sensation in lotion, panel evaluation (Example 20); type: in vivo, human; details: for Overall warming intensity (1 = no effect, 5 = extremely warming): 0.5% loading in in-house lotion base, 5 panelists, control 1.25
Source text: All materials were made with 0.5% loading of active compound in an in-house lotion base except the control, which contains no active material. There were a total of 5 panelists to evaluate the lotion samples.

mouth = assay: Perceived warming sensations in the mouth, "swish and spit" protocol (Example 15); type: in vivo, human; details: 1% by weight in ethanol, diluted at 10 ppm in water, one comment per participant (5 expert evaluators)
Protocol: A warming composition was prepared by adding 1% by weight of the warming agent of Example 1 to ethanol. The resulting warming composition was diluted at 10 ppm in water. The diluted warming composition was evaluated for its perceived warming sensations in the mouth by 5 expert evaluators following a “swish and spit” protocol, in which the sample is placed into a small tasting cup, taken into the mouth, and swished around, then the sample is spit back into the original tasting cup and disposed of. Additional compounds were evaluated and compared for perceived warming sensations in the mouth by expert evaluators following the “swish and spit” protocol.

expert panelists = assay: Warming evaluation in milk chocolate by expert panelists (Example 17); type: in vivo, human; details: 5% cut in MCT at 0.3% in milk chocolate; for Average Warming Intensity (1-9): 1=none, 9=very strong, control without warming compound 1.7; for Onset: panelists chose slow, medium or fast

SMILES	Heat sensation when working out (sweating) after application (panelists; 0.5% in lotion base, noticed by an evaluator)	Overall warming intensity (1 = no effect, 5 = extremely warming) (panelists)	Comments (perceived warming sensations in the mouth) (mouth)	Average Warming Intensity (1-9) (expert panelists; 10 expert panelists)	Character/Comments (expert panelists; 10 expert panelists, listed as compound C)	Onset (expert panelists)	melting point [°C]
COc1cc(CC(=O)OCCOc2ccccc2)ccc1O [Example 1, 2-Phenoxyethyl 2-(4-hydroxy-3-methoxyphenyl)acetate]	the heat sensation came back at the same intensity as first described at initial application	2.90	Immediate burn, intense but fades really quickly	6.8	pleasant linger, without an irritating burn	Fast (“fast onset” relates to the onset of warming sensation in less than about 10 seconds (i.e., quick))	56
COc1ccc(CC(C)COC(=O)Cc2ccc(O)c(OC)c2)cc1 (stereo not shown) [Example 5, 3-(4-methoxyphenyl)-2-methylpropyl 2-(4-hydroxy-3-methoxyphenyl)acetate]		1.80		2.25		Slow (“slow onset” relates to the onset of warming sensation occurring after about 15 seconds (i.e., delayed))	
COc1cc(CC(=O)OC/C=C(\C)CCC=C(C)C)ccc1O [Example 13, (E)-3,7-Dimethylocta-2,6-dien-1-yl 2-(4-hydroxy-3-methoxyphenyl)acetate]		2.70		2.7		Slow (“slow onset” relates to the onset of warming sensation occurring after about 15 seconds (i.e., delayed))	
